Here are results for 30 molecules from ChEMBL document CHEMBL1139227, “Discovery of a series of 6,7-dimethoxy-4-pyrrolidylquinazoline PDE10A inhibitors” (J Med Chem, 2007).

For experiment [1], the target named is cGMP-inhibited 3',5'-cyclic phosphodiesterase 3A (Homo sapiens, UniProt Q14432). The experiment is described as follows: Inhibition of human recombinant PDE3A transfected in Sf9 cells by SPA.
The target of experiment [2] is cGMP-inhibited 3',5'-cyclic phosphodiesterase 3B (Homo sapiens, UniProt Q13370). The experiment is described as follows: Inhibition of human recombinant PDE3B transfected in Sf9 cells by SPA.
Experiment [3] is described as follows: Inhibition of rat recombinant PDE10A transfected in Sf9 cells by SPA.
The test system of experiment [4] is Mus musculus. The experiment is described as follows: Increase of cGMP level in CD1 mouse striatal tissue at 10 mg/kg, sc. The format is functional, organism-based. Further details: dose 10 mg/kg. The following applies: Striatum.
Experiment [5] has as its system Mus musculus. The experiment is described as follows: Increase of phosphorylated CREB level in CD1 mice striatal tissue at 32 mg/kg, sc after 90 mins. In kind it is functional, organism-based. Further details: dose 32 mg/kg. The following applies: Striatum.
The test system of experiment [6] is Mus musculus. The experiment is described as follows: Increase of phosphorylated CREB level in CD1 mice striatal tissue at 32 mg/kg, sc after 30 mins. In kind it is functional, organism-based. Further details: dose 32 mg/kg. As to conditions: Striatum.
The test system of experiment [7] is Mus musculus. The experiment is described as follows: Increase of cGMP level in CD1 mouse striatal tissue at 32 mg/kg, sc. Set-up: dose 32 mg/kg. The following applies: Striatum. The format is functional, organism-based.

The source made the active and inactive calls. The calls are words filed in the database; no cut-off is given here. Some results are limits rather than exact numbers.

Chain of cGMP-inhibited 3',5'-cyclic phosphodiesterase 3B (Q13370 whole entry): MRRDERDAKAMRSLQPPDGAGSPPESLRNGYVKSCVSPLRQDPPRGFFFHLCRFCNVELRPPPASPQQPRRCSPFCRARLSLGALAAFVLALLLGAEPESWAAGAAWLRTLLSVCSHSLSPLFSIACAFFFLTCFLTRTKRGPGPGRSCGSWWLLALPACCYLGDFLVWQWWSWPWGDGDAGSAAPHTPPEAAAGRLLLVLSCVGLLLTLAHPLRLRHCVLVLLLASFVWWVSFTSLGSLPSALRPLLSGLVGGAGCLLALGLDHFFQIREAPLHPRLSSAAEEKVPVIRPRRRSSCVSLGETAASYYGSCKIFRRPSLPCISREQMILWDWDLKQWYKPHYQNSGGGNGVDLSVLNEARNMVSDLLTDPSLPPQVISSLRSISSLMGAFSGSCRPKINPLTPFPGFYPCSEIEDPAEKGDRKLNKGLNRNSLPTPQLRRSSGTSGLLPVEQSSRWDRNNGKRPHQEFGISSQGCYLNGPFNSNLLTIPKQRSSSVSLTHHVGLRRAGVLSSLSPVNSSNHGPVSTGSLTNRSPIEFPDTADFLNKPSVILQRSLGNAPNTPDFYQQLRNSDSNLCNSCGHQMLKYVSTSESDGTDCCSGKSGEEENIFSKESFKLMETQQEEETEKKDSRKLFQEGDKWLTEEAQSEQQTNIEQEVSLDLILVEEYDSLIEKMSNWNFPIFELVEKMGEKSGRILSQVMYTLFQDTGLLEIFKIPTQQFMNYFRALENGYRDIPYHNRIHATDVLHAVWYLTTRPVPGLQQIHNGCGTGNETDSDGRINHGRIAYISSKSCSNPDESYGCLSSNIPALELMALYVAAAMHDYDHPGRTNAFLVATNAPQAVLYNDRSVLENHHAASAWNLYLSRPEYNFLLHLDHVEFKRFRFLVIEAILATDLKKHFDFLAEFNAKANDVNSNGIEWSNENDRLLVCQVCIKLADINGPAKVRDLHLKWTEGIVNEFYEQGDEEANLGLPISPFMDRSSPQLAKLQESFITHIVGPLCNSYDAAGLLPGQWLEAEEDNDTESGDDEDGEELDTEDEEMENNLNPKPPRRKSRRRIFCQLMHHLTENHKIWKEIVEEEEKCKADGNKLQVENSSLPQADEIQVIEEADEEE
Chain of cGMP-inhibited 3',5'-cyclic phosphodiesterase 3A (Q14432 whole entry): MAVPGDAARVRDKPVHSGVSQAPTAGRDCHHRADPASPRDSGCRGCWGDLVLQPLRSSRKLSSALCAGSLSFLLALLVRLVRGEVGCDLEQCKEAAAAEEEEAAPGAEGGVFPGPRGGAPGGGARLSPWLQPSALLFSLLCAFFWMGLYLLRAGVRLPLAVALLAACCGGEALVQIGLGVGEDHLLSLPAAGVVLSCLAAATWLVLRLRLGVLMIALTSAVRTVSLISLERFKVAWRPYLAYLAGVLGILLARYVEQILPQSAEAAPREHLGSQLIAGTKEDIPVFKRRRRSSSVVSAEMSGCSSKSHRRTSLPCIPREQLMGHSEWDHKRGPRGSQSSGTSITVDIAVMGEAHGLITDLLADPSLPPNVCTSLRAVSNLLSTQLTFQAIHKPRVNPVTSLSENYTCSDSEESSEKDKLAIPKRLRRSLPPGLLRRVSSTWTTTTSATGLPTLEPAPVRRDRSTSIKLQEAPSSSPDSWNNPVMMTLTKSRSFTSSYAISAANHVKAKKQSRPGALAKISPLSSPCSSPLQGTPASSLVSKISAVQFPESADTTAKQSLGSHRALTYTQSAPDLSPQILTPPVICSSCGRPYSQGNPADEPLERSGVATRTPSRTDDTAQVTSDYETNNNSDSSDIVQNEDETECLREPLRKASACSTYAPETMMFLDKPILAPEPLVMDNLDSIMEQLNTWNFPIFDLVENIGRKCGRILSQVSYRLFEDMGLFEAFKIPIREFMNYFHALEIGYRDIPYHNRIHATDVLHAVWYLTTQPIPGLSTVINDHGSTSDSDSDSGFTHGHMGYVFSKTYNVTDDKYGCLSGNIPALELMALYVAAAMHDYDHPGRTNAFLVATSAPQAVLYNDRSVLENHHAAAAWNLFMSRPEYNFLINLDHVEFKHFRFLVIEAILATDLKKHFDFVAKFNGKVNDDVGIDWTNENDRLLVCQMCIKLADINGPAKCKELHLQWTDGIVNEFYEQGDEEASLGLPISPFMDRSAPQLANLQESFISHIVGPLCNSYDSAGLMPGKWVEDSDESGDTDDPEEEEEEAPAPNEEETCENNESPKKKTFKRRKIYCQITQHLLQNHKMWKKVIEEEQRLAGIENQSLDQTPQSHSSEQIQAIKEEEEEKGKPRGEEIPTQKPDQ

With `CCOc1cccc(O[C@@H]2CCN(c3ncnc4cc(OC)c(OC)cc34)C2)c1`, the results for the Ki in experiment [1], in experiment [2] and in experiment [3] were 61 nM, 88 nM and 94 nM, respectively.
Regarding `COc1cc2ncnc(N3CC[C@@H](Oc4cc5ccccc5cn4)C3)c2cc1OC`, the Ki – broadly, the equilibrium dissociation constant of an inhibitor or competing ligand from its target – in experiment [1] came to 151 nM; in experiment [2], 196 nM; in experiment [3] it was 19 nM.
On the same counts, the results for `COc1cc2ncnc(N3CC[C@@H](Oc4ccc5nc(C)ccc5c4)C3)c2cc1OC` are 152 nM, 223 nM and 18 nM.
As for `COc1cc2ncnc(N3CCc4ccc(S(=O)(=O)N5CCN(C)CC5)cc4C3)c2cc1OC`, the Ki in experiment [3] amounted to 25 nM.
In the case of `COc1cc2ncnc(N3CC[C@@H](Oc4ccccc4C)C3)c2cc1OC`, the Ki in experiment [1] was less than 100 nM; in experiment [2], less than 100 nM; in experiment [3], 326 nM.
On to `COc1cc2ncnc(N3CC[C@@H](Oc4cccc(C(C)C)c4)C3)c2cc1OC`, for which the Ki in experiment [1] was determined as 370 nM; in experiment [2], 474 nM; in experiment [3], 171 nM.
On the same counts, the results for `COc1cc2ncnc(N3CC[C@@H](Oc4ccc(OC(F)(F)F)cc4)C3)c2cc1OC` are 739 nM, 1820 nM and 185 nM.
On the same counts, the results for `COc1cc2ncnc(N3CC[C@@H](Oc4cccc5ccccc45)C3)c2cc1OC` are 48 nM, 56 nM and 210 nM.
On to `COc1cc2ncnc(N3CC[C@@H](Oc4cccnc4)C3)c2cc1OC`, for which the Ki in experiment [1] stood at 302 nM; in experiment [2] it was 748 nM; in experiment [3], 128 nM.
As for `COc1cc2ncnc(N3CC[C@@H](Oc4ccc5ccccc5c4)C3)c2cc1OC`, the Ki in experiment [1] worked out at 283 nM; in experiment [2] it was 463 nM. In experiment [3], the IC50 (commonly the concentration that gives 50% inhibition) was found to be 14 nM.
`COc1cc2ncnc(N3CC[C@@H](Oc4ccc(C(C)(C)C)cc4)C3)c2cc1OC`: the figures for the Ki in experiment [1], in experiment [2] and in experiment [3] were 720 nM, 1890 nM and 100 nM, respectively.
`COc1cc2ncnc(N3CC[C@@H](Oc4ccccn4)C3)c2cc1OC`: the inhibition constant (Ki) is 77 nM in experiment [1], 207 nM in experiment [2] and 123 nM in experiment [3].
On the same counts, the results for `COc1cc2ncnc(N3CC[C@@H](Oc4ccccc4C#N)C3)c2cc1OC` are less than 100 nM, less than 100 nM and 130 nM.
With `COc1cc2ncnc(N3CC[C@@H](Oc4ccc5ncccc5c4)C3)c2cc1OC`, the Ki in experiment [1] amounted to 104 nM; in experiment [2] it was 201 nM; in experiment [3] it was 12 nM.
The like results for `COc1cc2ncnc(N3CC[C@@H](Oc4cccc(-c5ccccc5)c4)C3)c2cc1OC` were, in that order, 271 nM, 280 nM and 136 nM.
As to `COc1ccc(Cc2nccc3cc(OC)c(OC)cc23)cc1OC` [PAPAVERINE], the Ki in experiment [3] was found to be 17 nM.
In the case of `COc1cc2ncnc(N3CC[C@@H](Oc4ccccc4Cl)C3)c2cc1OC`, the Ki in experiment [1] was less than 100 nM; in experiment [2], less than 100 nM; in experiment [3] it was 198 nM.
`COc1cc2ncnc(N3CC[C@@H](Oc4ccccc4C(F)(F)F)C3)c2cc1OC`: the Ki in experiment [1] was less than 100 nM; in experiment [2] it was greater than 100 nM; in experiment [3] it was 811 nM.
Take `COc1cc2ncnc(N3CC[C@@H](Oc4cnc5ccccc5n4)C3)c2cc1OC`: the result in the experiment on Mus musculus [4], with Mus musculus [5], in the experiment on Mus musculus [6] and with Mus musculus [7] was Active. In addition, the Ki in experiment [1] was found to be 211 nM; in experiment [2] it was 273 nM. For the same molecule, the IC50 in experiment [3] came out at 6 nM.
For `CCOc1ccc(O[C@@H]2CCN(c3ncnc4cc(OC)c(OC)cc34)C2)cc1`, the results for the Ki in experiment [1], in experiment [2] and in experiment [3] were 161 nM, 328 nM and 54 nM, respectively.
The like results for `COc1ccc(O[C@@H]2CCN(c3ncnc4cc(OC)c(OC)cc34)C2)cc1OC` were, in that order, 121 nM, 260 nM and 67 nM.
Regarding `COc1ccc2ccc(O[C@@H]3CCN(c4ncnc5cc(OC)c(OC)cc45)C3)cc2c1`, the inhibitory constant (Ki) in experiment [1] is 273 nM; in experiment [2], 305 nM; in experiment [3], 17 nM.
On the same counts, the results for `COc1cc2ncnc(N3CC[C@@H](Oc4ncc(Cl)cn4)C3)c2cc1OC` are 162 nM, 332 nM and 44 nM.
The like results for `COc1cc2ncnc(N3CC[C@@H](Oc4ccncc4)C3)c2cc1OC` were, in that order, 226 nM, 685 nM and 112 nM.
On the same counts, the results for `COc1cc2ncnc(N3CC[C@@H](Oc4ccc5cccnc5c4)C3)c2cc1OC` are 209 nM, 240 nM and 12 nM.
As to `COc1cc2ncnc(N3CC[C@@H](Oc4ccc5c(c4)CCC5)C3)c2cc1OC`, the Ki worked out at 141 nM in experiment [1], 237 nM in experiment [2] and 68 nM in experiment [3].
Regarding `COc1cc2ncnc(N3CC[C@@H](Oc4ccccc4OC)C3)c2cc1OC`, the Ki was less than 100 nM in experiment [1], greater than 100 nM in experiment [2] and 240 nM in experiment [3].
Turning to `COc1cc2ncnc(N3CC[C@@H](Oc4ccc(C#N)cc4)C3)c2cc1OC`, the Ki came to 214 nM in experiment [1] and 471 nM in experiment [2].
`COc1cc2ncnc(N3CC[C@H](Oc4ccccc4OC)C3)c2cc1OC`: the figures for the Ki in experiment [1], in experiment [2] and in experiment [3] were greater than 100 nM, greater than 100 nM and 641 nM, respectively.
With `COc1ccc2cc(O[C@@H]3CCN(c4ncnc5cc(OC)c(OC)cc45)C3)ccc2c1`, the Ki was 199 nM in experiment [1], 280 nM in experiment [2] and 18 nM in experiment [3].
